According to publication PMC5681660, “Reduced hepatitis B and D viral entry using clinically applied drugs as novel inhibitors of the bile acid transporter NTCP” (Scientific Reports, 2017):
Where a name gives a salt, the structure may show the parent alone. Read-outs that look alike come from different tables or passages of the source.

Columns and labels:
[1] = molecular target: T1, human NTCP (Homo sapiens, UniProt Q14973); experiment: Screening taurocholate uptake assay (96-well, [14C]taurocholate, 10 µM drug)
T1 sequence (Q14973 1-349): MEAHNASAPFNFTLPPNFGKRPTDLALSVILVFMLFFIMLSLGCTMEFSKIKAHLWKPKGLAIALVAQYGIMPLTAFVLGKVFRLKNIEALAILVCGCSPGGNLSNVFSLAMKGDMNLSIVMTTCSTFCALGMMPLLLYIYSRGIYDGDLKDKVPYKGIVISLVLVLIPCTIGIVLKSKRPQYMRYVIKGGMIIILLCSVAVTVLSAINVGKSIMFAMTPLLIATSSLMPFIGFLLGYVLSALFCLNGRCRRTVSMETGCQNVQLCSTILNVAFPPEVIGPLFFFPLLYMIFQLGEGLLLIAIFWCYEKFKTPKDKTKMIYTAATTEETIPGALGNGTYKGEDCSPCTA

[2] = molecular target: T1, human NTCP; experiment: Screening fluorescent competitive Myrcludex B-FITC binding assay (96-well, 10 µM drug)
[3] = combined ranking from functional and binding screening assays
[4] = screen, 10 µM drug, taurocholate uptake
[5] = screen, 10 µM drug, Myrcludex B-FITC binding
[6] = Prestwick library screen, 10 µM drug, B-score of taurocholate uptake
[7] = combined ranking from functional and binding assay B-scores
[8] = Prestwick library screen, 10 µM drug, B-score of Myrcludex B-FITC binding
[9] = Prestwick library screen, taurocholate uptake, 10 µM drug
[10] = ranking score beside the functional and binding assay B-scores of the screen
[11] = Prestwick library screen, Myrcludex B-FITC binding, 10 µM drug

Row | SMILES | Ranking score [1, 3] | B-score functional assay [1, 4] | B-score binding assay [2, 5] | B-score functional assay [1, 6] | Ranking score [1, 7] | B-score binding assay [2, 8] | further results
1 | COc1c(N2C[C@@H]3CCCN[C@@H]3C2)c(F)cc2c(=O)c(C(=O)O)cn(C3CC3)c12 [Moxifloxacin] | 388.165 | 0.4 | -1.402 |  |  |  | 
2 | CC(=O)Oc1cc(C(C)C)c(OCCN(C)C)cc1C.Cl [Moxisylyte hydrochoride] | 375.319 | -0.84 | -0.183 |  |  |  | 
3 | COc1nc(C)nc(Cl)c1N=C1NCCN1 [Moxonidine] | 427.083 | -0.211 | -0.494 |  |  |  | 
4 | COc1ccc2cc(CCC(C)=O)ccc2c1 [Nabumetone] | 286.691 | -0.236 | -1.377 |  |  |  | 
5 | CC(C)(C)NCC(O)COc1cccc2c1CC(O)C(O)C2 (stereo not drawn) [Nadolol] |  |  |  | 0.292 | 986.853 | 1.627 | 
6 | CN(C/C=C/c1ccccc1)Cc1cccc2ccccc12 [Naftifine hydrochloride] |  |  |  |  |  |  | B-score functional assay [1, 9]: 0.726; Ranking score [1, 10]: 685.775; B-score binding assay [2, 11]: -0.234
7 | COc1ccccc1N1CCN(CC(O)COc2cccc3ccccc23)CC1.Cl.Cl (stereo not drawn) [Naftopidil dihydrochloride] | 412.912 | -1.853 | 1.879 |  |  |  | 
8 | Oc1ccc2c3c1O[C@H]1[C@@H](O)CC[C@@]4(O)[C@@H](C2)N(CC2CCC2)CC[C@]314 [Nalbuphine hydrochloride] |  |  |  |  |  |  | B-score functional assay [1]: -1.445; Ranking score [1]: 312.49; B-score binding assay [2]: -0.132
9 | C=CCN1CC[C@]23c4c5ccc(O)c4O[C@H]2C(=O)CC[C@@]3(O)[C@H]1C5 [Naloxone hydrochloride] |  |  |  |  |  |  | Ranking score ([1]; combined ranking of functional and binding screening assays): 578.749; B-score functional assay ([1]; screening taurocholate uptake, 10 µM drug): -0.111; B-score binding assay [2]: 0
10 | C[C@]12CC[C@H]3[C@@H](CCC4=CC(=O)CC[C@@H]43)[C@@H]1CC[C@@H]2O [Nandrolone] |  |  |  |  |  |  | B-score functional assay [1]: 0.05; Ranking score [1]: 852.366; B-score binding assay [2]: 0.982
11 | COc1ccc2cc([C@H](C)C(=O)O)ccc2c1 [Naproxen] | 422.428 | -0.433 | -0.298 |  |  |  | 
12 | CC(C)[C@H]1CC[C@H](C(=O)N[C@H](Cc2ccccc2)C(=O)O)CC1 [Nateglinide] | 461.181 | -1.02 | 0.322 |  |  |  | 
13 | CN1CCOC(c2ccccc2)c2ccccc2C1 (stereo not drawn) [Nefopam hydrochloride] |  |  |  | 0.705 | 906.685 | 0.293 | 
14 | NC[C@@H]1O[C@H](O[C@H]2[C@@H](O)[C@H](O[C@@H]3[C@@H](O)[C@H](N)C[C@H](N)[C@H]3O[C@H]3O[C@H](CN)[C@@H](O)[C@H](O)[C@H]3N)O[C@@H]2CO)[C@H](N)[C@@H](O)[C@@H]1O.O=S(=O)(O)O [Neomycin sulfate] |  |  |  | 0.497 | 912.995 | 0.524 | 
15 | CN(C)C(=O)Oc1cccc([N+](C)(C)C)c1 [Neostigmine bromide] |  |  |  |  |  |  | B-score functional assay [1, 9]: -0.02; Ranking score [1, 10]: 703.343; B-score binding assay [2, 11]: 0.229
16 | O=C(O)c1cccnc1 [Niacin] |  |  |  |  |  |  | B-score functional assay [1, 9]: 0.004; Ranking score [1, 10]: 716.877; B-score binding assay [2, 11]: 0.206
17 | O=C(CCNNC(=O)c1ccncc1)NCc1ccccc1 [Nialamide] |  |  |  | 0.331 | 907.486 | 0.697 | 
18 | COC(=O)C1=C(C)NC(C)=C(C(=O)OCCN(C)Cc2ccccc2)C1c1cccc([N+](=O)[O-])c1 (stereo not drawn) [Nicardipine hydrochloride] | 378.616 | -0.022 | -1.032 |  |  |  | 
19 | NC(=O)c1cccnc1 [Nicotinamide] |  |  |  | 1.452 | 911.172 | 0.079 | 
20 | O=C(O)c1cccnc1Nc1cccc(C(F)(F)F)c1 [Niflumic acid] |  |  |  |  |  |  | B-score functional assay [1, 9]: 0.166; Ranking score [1, 10]: 675.036; B-score binding assay [2, 11]: -0.054
21 | O=C(N/N=C/c1ccc([N+](=O)[O-])o1)c1ccc(O)cc1 [Nifuroxazide] |  |  |  | 2.774 | 1088.47 | 0.661 | 
22 | CC1CS(=O)(=O)CCN1/N=C/c1ccc([N+](=O)[O-])o1 (stereo not drawn) [Nifurtimox] | 381.366 | -0.767 | -0.222 |  |  |  | 
23 | CC1(C)NC(=O)N(c2ccc([N+](=O)[O-])c(C(F)(F)F)c2)C1=O [Nilutamide] |  |  |  | 5.352 | 1119.7 | 0.756 | 
